Measured values taken from PubChem BioAssay AID1963428 (Molecular Pharmacology Branch, DTP, NCI, 2024).

System: 171881-019-R-J1-PDC complex spheroid growth, % test/control
Assay: Anticancer human tumor 171881-019-R-J1-PDC patient-derived invasive breast carcinoma cell line growth inhibition [Asc]
Conditions: for viability, T/C: stronger effect = lower value
In short: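 Tumor cells were grown as complex spheroids with human endothelial cells (HUVEC) and human mesenchymal stem cells as stroma. Agents were tested alone and in combination, in half-log steps down from the clinical Cmax, or from 10 microM where Cmax was unknown.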

[1] = curve of first compound, second compound 0.01 µM
[2] = curve of first compound, second compound 0.0316 µM
[3] = curve of first compound, second compound 0.1 µM
[4] = curve of first compound, second compound 0.316 µM
[5] = curve of first compound, second compound 1 µM
[6] = second compound 0.1 µM, first compound 0.00949 µM
[7] = second compound 0.1 µM, first compound 0.03 µM
[8] = second compound 0.1 µM, first compound 0.0949 µM
[9] = second compound 0.1 µM, first compound 0.3 µM
[10] = second compound 0.316 µM, first compound 0.00949 µM
[11] = second compound 0.316 µM, first compound 0.03 µM
[12] = second compound 0.316 µM, first compound 0.0949 µM
[13] = second compound 0.316 µM, first compound 0.3 µM
[14] = second compound 1 µM, first compound 0.00949 µM
[15] = second compound 1 µM, first compound 0.03 µM
[16] = second compound 1 µM, first compound 0.0949 µM
[17] = second compound 1 µM, first compound 0.3 µM
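Wherever viability, T/C is given: spheroids exposed to compounds for 7 days.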

C=CC(=O)N1CCN(c2nc(=O)n(-c3c(C)ccnc3C(C)C)c3nc(-c4c(O)cccc4F)c(F)cc23)C(C)C1 (stereo not drawn) + CNC(C)C(=O)NC1CN(S(=O)(=O)c2cccc(S(=O)(=O)N3CCC4CCC(C(=O)NC(c5ccccc5)c5ccccc5)N4C(=O)C(NC(=O)C(C)NC)C3)c2)CCC2CCC(C(=O)NC(c3ccccc3)c3ccccc3)N2C1=O
IC50 [1]: > 10 µM | IC50 [2]: > 10 µM | IC50 [3]: > 10 µM | IC50 [4]: > 10 µM | IC50 [5]: > 10 µM | viability, T/C (second compound 0.01 µM, first compound 0.0316 µM): 105% | viability, T/C (second compound 0.01 µM, first compound 0.1 µM): 94.4% | viability, T/C (second compound 0.01 µM, first compound 0.316 µM): 84.8% | viability, T/C (second compound 0.01 µM, first compound 1 µM): 96% | viability, T/C (second compound 0.01 µM, first compound 3.16 µM): 95.7% | viability, T/C (second compound 0.01 µM, first compound 10 µM): 85.8% | viability, T/C (second compound 0.0316 µM, first compound 0.0316 µM): 110% | viability, T/C (second compound 0.0316 µM, first compound 0.1 µM): 97.7% | viability, T/C (second compound 0.0316 µM, first compound 0.316 µM): 97.8% | viability, T/C (second compound 0.0316 µM, first compound 1 µM): 85.7% | viability, T/C (second compound 0.0316 µM, first compound 3.16 µM): 85.2% | viability, T/C (second compound 0.0316 µM, first compound 10 µM): 80.3% | viability, T/C (second compound 0.1 µM, first compound 0.0316 µM): 99.2% | viability, T/C (second compound 0.1 µM, first compound 0.1 µM): 92.4% | viability, T/C (second compound 0.1 µM, first compound 0.316 µM): 95.9% | viability, T/C (second compound 0.1 µM, first compound 1 µM): 98.6% | viability, T/C (second compound 0.1 µM, first compound 3.16 µM): 96% | viability, T/C (second compound 0.1 µM, first compound 10 µM): 96.2% | viability, T/C (second compound 0.316 µM, first compound 0.0316 µM): 95.1% | viability, T/C (second compound 0.316 µM, first compound 0.1 µM): 95.3% | viability, T/C (second compound 0.316 µM, first compound 0.316 µM): 103% | viability, T/C (second compound 0.316 µM, first compound 1 µM): 107% | viability, T/C (second compound 0.316 µM, first compound 3.16 µM): 94% | viability, T/C (second compound 0.316 µM, first compound 10 µM): 86.8% | viability, T/C (second compound 1 µM, first compound 0.0316 µM): 110% | viability, T/C (second compound 1 µM, first compound 0.1 µM): 110% | viability, T/C (second compound 1 µM, first compound 0.316 µM): 86% | viability, T/C (second compound 1 µM, first compound 1 µM): 96.6% | viability, T/C (second compound 1 µM, first compound 3.16 µM): 96.2% | viability, T/C (second compound 1 µM, first compound 10 µM): 96.8%

NC(=O)C(=Cn1cnc(-c2cc(C(F)(F)F)cc(C(F)(F)F)c2)n1)c1cncnc1 + Cc1c(S(C)(=O)=O)c(-c2cc(F)cc(N3CCN(c4ccc(NS(=O)(=O)c5ccc(NC(CCN6CCC(C(=O)OCCCP(=O)(O)O)CC6)CSc6ccccc6)c(S(=O)(=O)C(F)(F)F)c5)cc4)CC3)c2)c(-c2ccc(Cl)cc2)n1C(C)C
IC50 [3]: 0.0254 µM | IC50 [4]: 0.0188 µM | IC50 [5]: 0.0173 µM | IC50 (curve of first compound, second compound 3.16 µM): 0.0135 µM | IC50 (curve of first compound, second compound 10 µM): 0.00939 µM | viability, T/C (second compound 0.1 µM, first compound 0.000949 µM): 102% | viability, T/C (second compound 0.1 µM, first compound 0.003 µM): 108% | viability, T/C [6]: 116% | viability, T/C [7]: 40.1% | viability, T/C [8]: 4.69% | viability, T/C [9]: 1.77% | viability, T/C (second compound 0.316 µM, first compound 0.000949 µM): 111% | viability, T/C (second compound 0.316 µM, first compound 0.003 µM): 159% | viability, T/C [10]: 84.5% | viability, T/C [11]: 28.7% | viability, T/C [12]: 2.73% | viability, T/C [13]: 1.39% | viability, T/C (second compound 1 µM, first compound 0.000949 µM): 144% | viability, T/C (second compound 1 µM, first compound 0.003 µM): 135% | viability, T/C [14]: 86.1% | viability, T/C [15]: 16.6% | viability, T/C [16]: 2.27% | viability, T/C [17]: 1.86% | viability, T/C (second compound 3.16 µM, first compound 0.000949 µM): 171% | viability, T/C (second compound 3.16 µM, first compound 0.003 µM): 151% | viability, T/C (second compound 3.16 µM, first compound 0.00949 µM): 65.4% | viability, T/C (second compound 3.16 µM, first compound 0.03 µM): 14.7% | viability, T/C (second compound 3.16 µM, first compound 0.0949 µM): 1.2% | viability, T/C (second compound 3.16 µM, first compound 0.3 µM): 0.46% | viability, T/C (second compound 10 µM, first compound 0.000949 µM): 183% | viability, T/C (second compound 10 µM, first compound 0.003 µM): 135% | viability, T/C (second compound 10 µM, first compound 0.00949 µM): 47.7% | viability, T/C (second compound 10 µM, first compound 0.03 µM): 13.5% | viability, T/C (second compound 10 µM, first compound 0.0949 µM): 1.03% | viability, T/C (second compound 10 µM, first compound 0.3 µM): 0.35%

Cc1c(S(C)(=O)=O)c(-c2cc(F)cc(N3CCN(c4ccc(NS(=O)(=O)c5ccc(NC(CCN6CCC(C(=O)OCCCP(=O)(O)O)CC6)CSc6ccccc6)c(S(=O)(=O)C(F)(F)F)c5)cc4)CC3)c2)c(-c2ccc(Cl)cc2)n1C(C)C (stereo not drawn)
viability, T/C (compound 0.1 µM): 98.9% [middle of 14 runs] | viability, T/C (compound 10 µM): 175% [middle of 14 runs] | IC50 (compound alone, run of 09/27/2022): > 10 µM

CCN1C(C(=O)NC23CCC(C(=O)O)(CC2)CC3)C(c2cccc(Cl)c2F)C2(C(=O)Nc3cc(Cl)ccc32)C12CCCCC2 (stereo not drawn) + CNC(C)C(=O)NC1CN(S(=O)(=O)c2cccc(S(=O)(=O)N3CCC4CCC(C(=O)NC(c5ccccc5)c5ccccc5)N4C(=O)C(NC(=O)C(C)NC)C3)c2)CCC2CCC(C(=O)NC(c3ccccc3)c3ccccc3)N2C1=O
IC50 [1]: > 3 µM | IC50 [2]: > 3 µM | IC50 [3]: > 3 µM | IC50 [4]: > 3 µM | IC50 [5]: > 3 µM | viability, T/C (second compound 0.01 µM, first compound 0.00949 µM): 91% | viability, T/C (second compound 0.01 µM, first compound 0.03 µM): 108% | viability, T/C (second compound 0.01 µM, first compound 0.0949 µM): 117% | viability, T/C (second compound 0.01 µM, first compound 0.3 µM): 109% | viability, T/C (second compound 0.01 µM, first compound 0.949 µM): 110% | viability, T/C (second compound 0.01 µM, first compound 3 µM): 138% | viability, T/C (second compound 0.0316 µM, first compound 0.00949 µM): 109% | viability, T/C (second compound 0.0316 µM, first compound 0.03 µM): 118% | viability, T/C (second compound 0.0316 µM, first compound 0.0949 µM): 104% | viability, T/C (second compound 0.0316 µM, first compound 0.3 µM): 112% | viability, T/C (second compound 0.0316 µM, first compound 0.949 µM): 105% | viability, T/C (second compound 0.0316 µM, first compound 3 µM): 138% | viability, T/C [6]: 130% | viability, T/C [7]: 117% | viability, T/C [8]: 104% | viability, T/C [9]: 111% | viability, T/C (second compound 0.1 µM, first compound 0.949 µM): 117% | viability, T/C (second compound 0.1 µM, first compound 3 µM): 132% | viability, T/C [10]: 110% | viability, T/C [11]: 120% | viability, T/C [12]: 91.2% | viability, T/C [13]: 123% | viability, T/C (second compound 0.316 µM, first compound 0.949 µM): 99% | viability, T/C (second compound 0.316 µM, first compound 3 µM): 132% | viability, T/C [14]: 102% | viability, T/C [15]: 110% | viability, T/C [16]: 112% | viability, T/C [17]: 101% | viability, T/C (second compound 1 µM, first compound 0.949 µM): 121% | viability, T/C (second compound 1 µM, first compound 3 µM): 132%
